Assay results reported in ChEMBL document CHEMBL1201862, “PubChem BioAssay data set” (2004).
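Growth conditions: 96-well plates. Treatment: test compound, 48 hours, 5 concentrations. Analysis: linear interpolation between bracketing concentrations; unreached endpoints set to highest concentration. Here, GI50 denotes the concentration required for 50% inhibition of growth.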 Calls of active or inactive are those of the source. Rule as the data show it: active = GI50 up to about 1.1 µM and inactive = higher.

Columns and labels:
Experiment in all cases: DTP human tumour cell line panel, 48 h
EKVX = test system: EKVX
HCC 2998 = test system: HCC 2998
HL-60 = test system: HL-60
IGROV-1 = test system: IGROV-1
K562 = test system: K562
KM12 = test system: KM12
Malme-3M = test system: Malme-3M
NCI-H23 = test system: NCI-H23
NCI-H522 = test system: NCI-H522
OVCAR-4 = test system: OVCAR-4
RPMI-8226 = test system: RPMI-8226
SF-268 = test system: SF-268
SF-295 = test system: SF-295
SF-539 = test system: SF-539
SK-MEL-28 = test system: SK-MEL-28
SK-OV-3 = test system: SK-OV-3
SN12C = test system: SN12C
SNB-75 = test system: SNB-75
UO-31 = test system: UO-31
OVCAR-3 = test system: OVCAR-3

| Compound | GI50 (EKVX) | GI50 (HCC 2998) | GI50 (HL-60) | GI50 (IGROV-1) | GI50 (K562) | GI50 (KM12) | GI50 (Malme-3M) | GI50 (NCI-H23) | GI50 (NCI-H522) | GI50 (OVCAR-4) | GI50 (RPMI-8226) | GI50 (SF-268) | GI50 (SF-295) | GI50 (SF-539) | GI50 (SK-MEL-28) | GI50 (SK-OV-3) | GI50 (SN12C) | GI50 (SNB-75) | GI50 (UO-31) | GI50 (OVCAR-3) |
| --- | --- | --- | --- | --- | --- | --- | --- | --- | --- | --- | --- | --- | --- | --- | --- | --- | --- | --- | --- | --- |
| O=C(Cc1ccccc1)N/N=C(/c1nc2ccc([N+](=O)[O-])cc2nc1O)C(O)c1ccccc1Cl (stereo not drawn) | > 100 µM (inactive) | 54 µM (inactive) | > 100 µM (inactive) | > 100 µM (inactive) | > 100 µM (inactive) | 79.3 µM (inactive) | > 100 µM (inactive) | > 100 µM (inactive) | 6.28 µM (inactive) | > 100 µM (inactive) | > 100 µM (inactive) | > 100 µM (inactive) | > 100 µM (inactive) | > 100 µM (inactive) | > 100 µM (inactive) | > 100 µM (inactive) | > 100 µM (inactive) | > 100 µM (inactive) | > 100 µM (inactive) | – |
| CCOC(=O)CCC1(C(=O)OCC)CCCCC1=O (stereo not drawn) | > 100 µM (inactive) | > 100 µM (inactive) | > 100 µM (inactive) | > 100 µM (inactive) | > 100 µM (inactive) | > 100 µM (inactive) | > 100 µM (inactive) | > 100 µM (inactive) | > 100 µM (inactive) | – | > 100 µM (inactive) | > 100 µM (inactive) | > 100 µM (inactive) | > 100 µM (inactive) | > 100 µM (inactive) | > 100 µM (inactive) | – | > 100 µM (inactive) | > 100 µM (inactive) | > 100 µM (inactive) |
| NC(=O)OCC(COc1ccc(Cl)cc1)OC(=O)c1cc([N+](=O)[O-])cc([N+](=O)[O-])c1 (stereo not drawn) | > 100 µM (inactive) | > 100 µM (inactive) | > 100 µM (inactive) | > 100 µM (inactive) | 37.2 µM (inactive) | > 100 µM (inactive) | > 100 µM (inactive) | > 100 µM (inactive) | 79.3 µM (inactive) | – | > 100 µM (inactive) | > 100 µM (inactive) | > 100 µM (inactive) | > 100 µM (inactive) | > 100 µM (inactive) | > 100 µM (inactive) | > 100 µM (inactive) | > 100 µM (inactive) | > 100 µM (inactive) | > 100 µM (inactive) |
| CC(C)C1=C(O)C(=O)C2=C(C1=O)C(OC=O)C(O)C1C(C)(C)CCCC21C (stereo not drawn) | 10.1 µM (inactive) | 6.82 µM (inactive) | 3.56 µM (inactive) | 10.3 µM (inactive) | 6.35 µM (inactive) | 12 µM (inactive) | 7.08 µM (inactive) | 7 µM (inactive) | 10.8 µM (inactive) | 10.2 µM (inactive) | 2.66 µM (inactive) | 10.5 µM (inactive) | 14.2 µM (inactive) | 13.7 µM (inactive) | 3.13 µM (inactive) | 13.4 µM (inactive) | 10.1 µM (inactive) | 10.8 µM (inactive) | 5.82 µM (inactive) | 12.1 µM (inactive) |
| O=c1cc(O)c1=O | > 100 µM (inactive) | > 100 µM (inactive) | > 100 µM (inactive) | > 100 µM (inactive) | > 100 µM (inactive) | > 100 µM (inactive) | > 100 µM (inactive) | > 100 µM (inactive) | > 100 µM (inactive) | > 100 µM (inactive) | > 100 µM (inactive) | 61.2 µM (inactive) | > 100 µM (inactive) | > 100 µM (inactive) | > 100 µM (inactive) | > 100 µM (inactive) | > 100 µM (inactive) | > 100 µM (inactive) | > 100 µM (inactive) | > 100 µM (inactive) |
| NCC(Cl)C(O)c1c[nH]c(N)n1 (stereo not drawn) | 0.502 µM (active) | 0.625 µM (active) | 3.46 µM (inactive) | 0.245 µM (active) | 2.38 µM (inactive) | 0.117 µM (active) | 1.43 µM (inactive) | 1.49 µM (inactive) | 1.93 µM (inactive) | 0.668 µM (active) | 0.237 µM (active) | 1.38 µM (inactive) | 4.31 µM (inactive) | 0.473 µM (active) | 3.61 µM (inactive) | 0.533 µM (active) | 2.12 µM (inactive) | 1.84 µM (inactive) | 0.822 µM (active) | 2.03 µM (inactive) |
| COc1cc(C(C)c2cc3c(cc2OCCOCCOc2cc4c(cc2C(C)c2cc(OC)c(OC)c(OC)c2)OCO4)OCO3)cc(OC)c1OC (stereo not drawn) | > 10 µM (inactive) | > 10 µM (inactive) | > 10 µM (inactive) | > 10 µM (inactive) | 36.1 µM (inactive) | > 10 µM (inactive) | > 10 µM (inactive) | > 10 µM (inactive) | > 10 µM (inactive) | > 10 µM (inactive) | > 100 µM (inactive) | > 10 µM (inactive) | 46.7 µM (inactive) | > 10 µM (inactive) | > 10 µM (inactive) | > 10 µM (inactive) | > 10 µM (inactive) | 19.1 µM (inactive) | 29.7 µM (inactive) | > 10 µM (inactive) |
| COC1=CC(=O)[C@@]2(C)C(C)[C@H](c3ccccc3)[C@H]2C1=O (stereo partly drawn) | > 100 µM (inactive) | > 100 µM (inactive) | > 100 µM (inactive) | > 100 µM (inactive) | > 100 µM (inactive) | > 100 µM (inactive) | > 100 µM (inactive) | > 100 µM (inactive) | > 100 µM (inactive) | > 100 µM (inactive) | > 100 µM (inactive) | > 100 µM (inactive) | > 100 µM (inactive) | > 100 µM (inactive) | > 100 µM (inactive) | > 100 µM (inactive) | – | > 100 µM (inactive) | > 100 µM (inactive) | > 100 µM (inactive) |
| S=C=NCCc1ccccc1 [PHENETHYLISOTHIOCYANATE] | 16.8 µM (inactive) | 0.412 µM (active) | 0.385 µM (active) | 0.435 µM (active) | 0.226 µM (active) | 0.239 µM (active) | 0.964 µM (active) | 0.453 µM (active) | 0.193 µM (active) | 2.14 µM (inactive) | 0.179 µM (active) | 1.06 µM (active) | 1.57 µM (inactive) | 0.207 µM (active) | 0.71 µM (active) | 1.72 µM (inactive) | 0.319 µM (active) | 2.65 µM (inactive) | 1.59 µM (inactive) | 0.612 µM (active) |
| O=C(NC(Cc1ccc(Cl)cc1)C(=O)O)c1ccc(I)cc1 (stereo not drawn) | – | 3.42 µM (inactive) | > 100 µM (inactive) | > 100 µM (inactive) | > 100 µM (inactive) | > 100 µM (inactive) | > 100 µM (inactive) | > 100 µM (inactive) | > 83.2 µM (inactive) | > 100 µM (inactive) | 84.7 µM (inactive) | > 100 µM (inactive) | > 100 µM (inactive) | > 100 µM (inactive) | > 100 µM (inactive) | > 100 µM (inactive) | > 100 µM (inactive) | 86.3 µM (inactive) | > 100 µM (inactive) | 76.7 µM (inactive) |
| ON(Cc1ccccc1)C(=S)c1ccccc1 | 7.23 µM (inactive) | 7.24 µM (inactive) | 0.927 µM (active) | 5.86 µM (inactive) | 3.27 µM (inactive) | 4.76 µM (inactive) | 25.4 µM (inactive) | 3.62 µM (inactive) | 0.482 µM (active) | 2.61 µM (inactive) | 2.77 µM (inactive) | 3.32 µM (inactive) | 3.42 µM (inactive) | 5.43 µM (inactive) | 11.4 µM (inactive) | 14.7 µM (inactive) | 8.41 µM (inactive) | 19 µM (inactive) | 4.03 µM (inactive) | 2.72 µM (inactive) |
| O=c1oc2ccc(-n3c(=O)c4ccccc4c4ccccc4c3=O)cc2c2ccccc12 | > 100 µM (inactive) | > 100 µM (inactive) | > 100 µM (inactive) | > 100 µM (inactive) | > 100 µM (inactive) | > 100 µM (inactive) | > 100 µM (inactive) | > 100 µM (inactive) | > 100 µM (inactive) | > 100 µM (inactive) | > 100 µM (inactive) | 50 µM (inactive) | > 100 µM (inactive) | > 100 µM (inactive) | > 100 µM (inactive) | > 100 µM (inactive) | > 100 µM (inactive) | 27 µM (inactive) | > 100 µM (inactive) | > 100 µM (inactive) |
| COc1cc(C2c3cc4c(cc3[C@@H](Nc3cccc(CO)c3)C3COC(=O)[C@H]23)OCO4)cc(OC)c1O (stereo partly drawn) | 3.31 µM (inactive) | 1.73 µM (inactive) | < 0.0218 µM (active) | 1.62 µM (inactive) | 0.178 µM (active) | 1.72 µM (inactive) | 1.56 µM (inactive) | 0.375 µM (active) | 1 µM (active) | 6.84 µM (inactive) | 0.244 µM (active) | 0.923 µM (active) | 0.218 µM (active) | 0.352 µM (active) | 2.24 µM (inactive) | 1.61 µM (inactive) | 0.558 µM (active) | 0.94 µM (active) | 0.541 µM (active) | 1.32 µM (inactive) |
| CC1(Br)S(=O)(=O)OCCOS1(=O)=O | > 100 µM (inactive) | > 100 µM (inactive) | > 100 µM (inactive) | > 100 µM (inactive) | > 100 µM (inactive) | – | > 100 µM (inactive) | > 100 µM (inactive) | > 100 µM (inactive) | > 100 µM (inactive) | > 100 µM (inactive) | > 100 µM (inactive) | > 100 µM (inactive) | > 100 µM (inactive) | > 100 µM (inactive) | > 100 µM (inactive) | > 100 µM (inactive) | > 100 µM (inactive) | > 100 µM (inactive) | > 100 µM (inactive) |
